Laboratory results: BindingDB's records for doi:10.1016/S0960-894X(97)00406-X (1997)
Counter-ions that a name gives are not always drawn.

Assay: Compound was evaluated for the inhibition of Opioid receptor delta 1 binding to guinea pig brain membranes, using 0.2 nM [3H]naltrindole as radioligand

Compound	Ki
CN(C(=O)Cc1ccc(Cl)c(Cl)c1)C(CN1CCCC1)c1cccc(NC(=S)Nc2ccc(-c3c4ccc(=O)cc-4oc4cc(O)ccc34)c(C(=O)O)c2)c1 (stereo not given) [5-{3-[3-(1-{[2-(3,4-Dichloro-phenyl)-acetyl]-methyl-amino}-2-pyrrolidin-1-yl-ethyl)-phenyl]-thioureido}-2-(6-hydroxy-3-oxo-3H-xanthen-9-yl)-benzoic acid]	1.8 nM
CN(C(=O)Cc1ccc(Cl)c(Cl)c1)[C@@H](CN1CCCC1)c1cccc(NC(=S)Nc2ccc(-c3c4ccc(=O)cc-4oc4cc(O)ccc34)c(C(=O)O)c2)c1 [5-{3-[3-((R)-1-{[2-(3,4-Dichloro-phenyl)-acetyl]-methyl-amino}-2-pyrrolidin-1-yl-ethyl)-phenyl]-thioureido}-2-(6-hydroxy-3-oxo-3H-xanthen-9-yl)-benzoic acid]	86 nM
CN(C(=O)Cc1ccc(Cl)c(Cl)c1)[C@H](CN1CCCC1)c1cccc(NC(=S)Nc2ccc(-c3c4ccc(=O)cc-4oc4cc(O)ccc34)c(C(=O)O)c2)c1 [5-{3-[3-((S)-1-{[2-(3,4-Dichloro-phenyl)-acetyl]-methyl-amino}-2-pyrrolidin-1-yl-ethyl)-phenyl]-thioureido}-2-(6-hydroxy-3-oxo-3H-xanthen-9-yl)-benzoic acid]	0.898 nM
CC(=O)Nc1cccc([C@H](CN2CCCC2)N(C)C(=O)Cc2ccc(Cl)c(Cl)c2)c1 [N-[(R)-1-(3-Acetylamino-phenyl)-2-pyrrolidin-1-yl-ethyl]-2-(3,4-dichloro-phenyl)-N-methyl-acetamide; hydrochloride]	3070 nM
CC(=O)Nc1cccc([C@@H](CN2CCCC2)N(C)C(=O)Cc2ccc(Cl)c(Cl)c2)c1 [N-[(S)-1-(3-Acetylamino-phenyl)-2-pyrrolidin-1-yl-ethyl]-2-(3,4-dichloro-phenyl)-N-methyl-acetamide; hydrochloride]	14 nM
